Test: gradient 5% acetonitrile 3 min, to 50% in 2 min, to 85% in 15 min, held 3 min, 100 µL/min
Details: column: Zorbax Extend-C18 2.1 x 50 mm; eluents: water / acetonitrile, 0.1% formic acid
In short: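 Retention time was recorded from adduct peaks, which were picked computationally and each inspected manually. Pure standards ran in mixtures of ~100 molecules on HPLC coupled to a quadrupole time-of-flight mass spectrometer, in positive and negative ionization mode, through a Zorbax Extend-C18 column (2.1 × 50 mm, 1.8 μm) at 100 μL/min. Eluents were water and acetonitrile, each with 0.1% formic acid.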

| SMILES | RP-LC retention time [s] |
| --- | --- |
| COCCCNC(=O)C1CCCN(c2ccc(Sc3ccc(Br)cc3)nn2)C1 (stereo not given) | 777 |
| CCOc1ccccc1CNC(=O)C1CCN(S(=O)(=O)c2cn(C(C)C)cn2)CC1 | 779 |
| O=C(Nc1nc(C(=O)N2CCN(c3ccccn3)CC2)co1)c1cnccn1 | 517 |
| CCCC(NC(=O)c1ccc(OC)cc1)C(=O)Nc1nc2ccccc2[nH]1 (stereo not given) | 658 |
| COc1cccc2sc(NC(=O)c3coc4ccccc4c3=O)nc12 | 921 |
| CCCS(=O)(=O)N1CCc2nc(N3CCN(C)CC3)sc2C1 | 764 |
| CCc1ccc(S(=O)(=O)N2CCn3c(nnc3C3CCN(C(C)C)C3)C2)cc1 (stereo not given) | 571 |
| CCN(CC)C(=O)N1CC(n2cc(C(=O)N3CCOCC3)nn2)C1 | 612 |
| Cc1sc(C)c(S(=O)(=O)N2CCCc3ccccc32)c1-c1cc(C(F)(F)F)on1 | 1290 |
| COc1ccc2cccc(CCNC(C)=O)c2c1 | 696 |
| CCOC(=O)CNC(=O)NCc1cccn1Cc1ccc(F)cc1 | 772 |
| CCc1ccc(-n2ncc3c(=O)n(Cc4nc(-c5ccc(SC)cc5)no4)cnc32)cc1 | 1210 |
| CCN(CC)c1nc(-c2ccc(C(C)(C)C)cc2)nc2ccccc12 | 943 |
| Cc1ccc(C)c(Cn2nc3ccc(S(=O)(=O)N4CCCCCC4)cn3c2=O)c1 | 1090 |
| COc1ccc(-c2c(C)noc2NC(C)=O)cc1S(=O)(=O)Nc1cc(OC)c(OC)c(OC)c1 | 687 |
| COCCn1c(=O)c2cc(C(=O)Nc3ccccc3)nn2c2ccccc21 | 714 |
| CCc1nc2cc(-c3noc(-c4ccc(OC)nc4)n3)ccc2o1 | 1180 |
| O=C(NCc1ccco1)c1ccc2c(c1)nnn2Cc1ccc(F)cc1 | 808 |
| CCn1cc(CN2CCC(C(=O)NCc3ccccc3C)CC2)c2cc(OC)ccc21 | 707 |
| CSc1cccc(NC(=O)C2CCN(S(=O)(=O)c3cn(C)cn3)CC2)c1 | 736 |
| CCc1ccc2nc(NCc3ccccn3)sc2c1 | 621 |
| CC1=C(C(=O)N(CC(=O)NCCc2ccccc2)c2ccc(Cl)cc2)SCCO1 | 956 |
| COc1cc(-c2noc(-c3nn(-c4cccc(C)c4)ccc3=O)n2)cc(OC)c1OC | 888 |

| SMILES | RP-LC retention time [s] |
| --- | --- |
| CCOC(=O)c1c(CN2CCN(CCO)CC2)n(C)c2cc(Br)c(OC(C)=O)cc12 | 679 |
| COc1ccc(-n2nc3c(N4CCCC(C(=O)NCCCc5ccccc5)C4)nnc(C)c3c2C)cc1 (stereo not given) | 777 |
| Cc1nc(N2CCOCC2)c2c(C(=O)N3CCN(c4cccc(Cl)c4)CC3)c(C)oc2n1 | 917 |
| CC(C)Oc1ccc(CNC(=O)C2(C)CCCCC(=O)N2)cc1 (stereo not given) | 710 |
| Cc1cccc(Nc2c(-c3cc(Br)ccc3O)nc3ncccn23)c1 | 1020 |
| Fc1ccc(-c2noc(-c3ccc(N4CCOCC4)nc3)n2)cc1 | 1080 |
| COc1ccc(OC)c(C(O)CN2CCC(c3nc(C)no3)CC2)c1 (stereo not given) | 574 |
| O=C(NCc1ccc(OC(F)(F)F)cc1)C1c2c(F)cccc2C(=O)N1CCc1ccccn1 (stereo not given) | 787 |
| Cc1nnc(-c2ccc(=O)n(CC(=O)NCc3ccc(F)c(Cl)c3)c2)o1 | 672 |
| Cc1ccc2c(c1)N(CCCC(=O)N1CCN(Cc3cn(C)c4ccccc34)CC1)C(=O)CO2 | 706 |
| CC1(C)C(=O)N(CC(=O)N2CCc3ccccc3C2)c2ccccc21 | 930 |
| COc1ccc(C(CC(=O)NCCN2CCN(C)CC2)N2Cc3ccccc3C2=O)cc1OC (stereo not given) | 579 |
| Cc1ccc(-c2nc(N3CCSCC3)ncc2C(=O)O)cc1 | 918 |
| COc1ccc(OC)c(NC(=O)CCc2c(C)nn(-c3cc(N4CCCC4)ncn3)c2C)c1 | 827 |
| COCCCNC(=O)C1CC(=O)N(c2n[nH]c3cccc(F)c23)C1 (stereo not given) | 638 |
| CCN(CC)CCNc1ncnc2onc(-c3cc(F)cc(F)c3)c12 | 651 |
| Cc1ccc(CNC(=O)CCc2nnc3c4cc(-c5ccccc5)nn4ccn23)cc1C | 815 |
| CCn1nccc1C(=O)N1CCCC1c1ccc(Cl)cc1 (stereo not given) | 850 |
| Cn1ncc2c(N3CCSCC3)nc(C(=O)Nc3ccccc3)nc21 | 819 |
| O=C(CCC1CCCC1)N1CCN(c2nnc3c(Cl)cccn23)CC1 | 691 |
| O=S(=O)(c1ccc2c(c1)CCCN2)N1CCC[C@H]2CCCC[C@@H]21 | 1190 |
| Cn1ccc2cc(S(=O)(=O)N3CCCC(C(=O)NC4CCCCCC4)C3)ccc21 (stereo not given) | 1010 |
| Cc1ccc2c(=O)c(C(=O)N3CCCC3)cn(CC(=O)NC3CCCCC3)c2n1 | 676 |

| SMILES | RP-LC retention time [s] |
| --- | --- |
| O=C1CCSc2ccc(S(=O)(=O)N3CCN(c4ccccn4)CC3)cc2N1 | 612 |
| COc1cc(NC(=O)c2cnc3c(c2)c(=O)n(C)c(=O)n3-c2ccc(C)cc2)cc(OC)c1 | 952 |
| Fc1cccc(Cl)c1CN1CC(c2nc(C3CC3)no2)C1 | 564 |
| O=C(Cn1ccc2ccccc21)NCCCC(=O)Nc1cccc2cccnc12 | 786 |
| Cn1c(=O)c(N2CCN(C(=O)c3cc(F)cc(F)c3)CC2)nc2cccnc21 | 860 |
| CC(C)CC1c2nccn2CCCN1C(=O)c1cc(C2CC2)[nH]n1 (stereo not given) | 614 |
| CCc1ccc(Nc2nc(C(=O)NCCc3cccs3)nc3ccccc23)cc1 | 907 |
| CCOc1ccc(-c2ccc(=O)n(Cc3nc(-c4ccc(OC(C)C)cc4)no3)n2)cc1 | 826 |
| CC1(C)C(=O)NCCN1C(=O)CN1C(=O)c2ccccc2C1=O | 594 |
| CCC(CC)C(=O)Nc1nc(-c2ccc3c(c2)N(CC)C(=O)CO3)c(C)s1 | 1270 |
| COc1cccc(C(=O)NC2CCN(c3ccc(F)cc3)C2=O)c1 (stereo not given) | 756 |
| O=c1c2c(ccn1Cc1nc(-c3ccsc3)no1)ccn2CC1CC1 | 980 |
| COc1ccc(S(=O)(=O)N2CCC(CN3CCC(C)CC3)CC2)cc1 | 655 |
| CC(C)c1ccc(NC(=O)Cn2ncc3c(c2=O)N(CC2CC2)C(=O)CS3)cc1 | 934 |
| CCOC(=O)CNC(=O)N1CCCN(C2=NS(=O)(=O)C(c3ccccc3)=C2C)CC1 | 718 |
| Cc1ccc(NC(=O)C2CCCN(S(=O)(=O)c3cn(C(C)C)cn3)C2)c(Cl)c1 (stereo not given) | 834 |
| Cc1nnc(N2CCCC(C(=O)N(C)Cc3ccccc3)C2)c2nn(-c3ccc(Cl)cc3)c(C)c12 (stereo not given) | 795 |
| O=C(NCCn1cnc2cc(C(=O)N3CCCC3)ccc21)Nc1cccc(Br)c1 | 623 |
| Cc1cnc(NC(=O)C2CN(c3nc4ccccc4s3)C2)s1 | 700 |
| CCCn1cc(CCNC(=O)Nc2cc(F)ccc2F)c2cccnc21 | 849 |
| Cc1nn(-c2ccccc2)c(C)c1/C=N/N1CCN(Cc2ccccc2)CC1 | 687 |
| Cc1ccc(CNC(=O)CCCn2c(=O)c3sccc3n(CC(=O)N3CCCCC3C)c2=O)cc1 (stereo not given) | 859 |
| COc1ccc(NC(=O)c2c[nH]c3nc(C)ccc3c2=O)cc1 | 776 |

| SMILES | RP-LC retention time [s] |
| --- | --- |
| O=C(NC1CC1)c1ccc(OCC2CCN(C(=O)c3ccc(F)cc3Cl)CC2)cc1 | 837 |
| Cc1ccc2c(C(=O)O)cc(NC(=O)C(C)C)cc2n1 | 563 |
| O=C(O)c1nnn(Cc2ccccc2F)c1-c1cccnc1 | 633 |
| CN1C(=O)CCc2cc(NC(=O)c3ccnn3C)ccc21 | 645 |
| O=C(Cc1ccccc1Cl)N1CCC2(CC1)N=C(c1ccccc1)NO2 | 841 |
| CCOCC(=O)N1CCCN(C2=NS(=O)(=O)C(c3ccccc3)=C2C)CC1 | 688 |
| COc1ccc(CNC(=O)Cc2cn(C)c3ncccc23)cc1OC | 616 |
| COc1cccc(S(=O)(=O)N2CCC3(C2)C(=O)Nc2ccc(OC)cc23)c1 (stereo not given) | 816 |
| Cc1nn(C)c(C)c1C(C)NC(=O)CCC1CCCN(c2cc(NC3CC3)ncn2)C1 (stereo not given) | 594 |
| CN(C)C(=O)c1cn(C2CN(C(=O)c3cccc4[nH]ccc34)C2)nn1 | 608 |
| CCc1noc(NC(C)=O)c1-c1ccc(C)c(S(=O)(=O)Nc2ccc(Cl)cc2C)c1 | 888 |
| CCOc1ccc(-c2noc(Cn3nc(-c4ccc5c(c4)OCO5)ccc3=O)n2)cc1 | 1130 |
| CCn1nccc1C(=O)N1CCC(c2nc3ccncc3n2CC(C)C)C1 (stereo not given) | 555 |
| CCOC(=O)c1[nH]c(C)c(C(=O)N2CCC(CC(=O)N3CCN(CC)CC3)CC2)c1C | 579 |
| CCOC(=O)C1CCCN(S(=O)(=O)c2ccc(Cl)c(-c3nnc(-c4ccccc4)o3)c2)C1 (stereo not given) | 1120 |
| CCOc1ccc(NS(=O)(=O)c2cc(C(=O)Nc3ccc(Br)cc3)n[nH]2)cc1 | 927 |
| Cc1cnc(C(=O)NC2C[C@H]3CC[C@@H](C2)N3C(=O)C2CC2)cn1 (stereo not given in full) | 606 |
| COc1ccc(CCS(=O)(=O)NCC2(CO)CC2)cc1 | 662 |
| Fc1ccc(C2Cn3nnc(-c4nc(-c5cccc(Cl)c5)no4)c3CO2)cc1 (stereo not given) | 1260 |
| CCOC(=O)CNC(=O)CSc1ccc2nnc(-c3cccc(F)c3)n2n1 | 625 |
| CCn1cc(S(=O)(=O)Nc2ccc(C)cc2C)c2cccnc21 | 900 |

Reference: the METLIN SMRT retention time set (Domingo-Almenara et al. 2019)
